In patent publication US8592394B2, “Synthetic derivatives beta glycolipids and compositions thereof for the treatment of pathologic disorders” (Enzo Therapeutics, Inc., priority 2003, dated 2013):

Key:
liver = details: mice, cited from earlier work
B6 splenocytes = assay: In vitro stimulation of splenocytes: [3H] thymidine incorporation (proliferation); format: cell-based, mouse; details: 72-h cultures, graded amounts
Method: (§1) Splenocytes were prepared as described above and plated at 2.0×10^5 cells per well in 96-well plates in RPMI-1640 supplemented with 5% FCS, […] 2-mercaptoethanol, 2 mM glutamine, 1% sodium pyruvate, and antibiotics. Titrated volumes of GC, α-GalCer, and ALIB-97 diluted in DMSO were added at final concentrations of 100 ng, 1 μg, and 10 μg/ml. After 72 h of culture, 1 μCi of [^3H] thymidine (Amersham Biosciences) was added to each well, and the cells were cultured for an additional 16 to 18 h. Cells were harvested with a cell harvester (Tomtec, Orange, Conn.), and the uptake of radioactivity was measured with a β-plate reader. To evaluate IFN-γ secretion in vitro, supernatants were harvested after 90 h of culture with glycolipids and stored until the cytokine levels were measured by ELISA.

ob/ob mice [1] = assay: Serum ALT and AST (hepatic injury) in ob/ob mice; format: in vivo; details: day 30, 45 μg per os daily, vehicle group A 710
Method: The effect of β-glycolipids on liver injury was evaluated by serum aspartyl transaminase (AST) and alanine aminotransferase (ALT) activities, which were determined by a clinical chemistry analyzer, Reflovet Plus (Roche Diagnostics, GmbH, Mannheim, Germany).
(§2) Therefore, five groups of male C57BL/6 Ob/Ob mice were studied. Mice (6 per group) were fed (per os) daily for 4 weeks with 15 or 45 μg of GC (groups B and C, respectively) and 15 or 45 μg of ALIB-97 (groups D and E, respectively). Control mice (Group A) were administered vehicle only.

fat-associated T cells = assay: Flow cytometry of T cell subsets in adipose tissue, stromal vascular cells and spleen of ob/ob mice; format: in vivo; details: 15 and 45 μg per os daily 4 weeks
Method: Splenocytes and intrahepatic lymphocytes were isolated as follows: livers and spleens were kept in RPMI-1640+FCS. Then spleens were crushed through a 70 μm nylon cell strainer (Falcon) and centrifuged (1250 rpm for 7 min) for the removal of cell debris. Red blood cells were lysed with 1 ml of cold 155 mM ammonium chloride lysis buffer and centrifuged (1250 rpm for 3 min). Splenocytes were resuspended with 1 ml RPMI+FCS. Cell viability by trypan blue staining was above 90%. For intrahepatic lymphocytes, livers were crushed through a stainless mesh (size 60, Sigma) and the cell suspension was placed in a 50-ml tube for 5 min. Lymphoprep (10 ml, Ficoll, Axis-Shield PoC AS, Oslo, Norway) was placed under similar volume of cell suspension in 50-ml tubes. Tubes were centrifuged at 1800 rpm for 18 min. Cells in the interface were collected and centrifuged at 1800 rpm for 10 min, to obtain a pellet of cells depleted of hepatocytes to a final volume of 250 μl. Approximately 1×10^6 cells/mouse liver, were recovered.
Adipose tissue (visceral fat pads) was minced and incubated in Krebs-Ringer bicarbonate buffer (3 mL/g adipose tissue) containing 10mM glucose and 2.5% bovine serum albumin, incubated with 840 U/g collagenase type I (Sigma, Rehovot, Israel)) at 37° C. for 1 hour. Cells were filtered twice through chiffon mesh (100 μm) and centrifuged 50 g for 5 min. Floating adipocytes were separated from pelleted S/V fraction. The infranatant fraction was removed and centrifuged at 200 g for five minutes to pellet the S/V cells.
For metabolic syndrome experiments, the following antibodies were used for flow cytometry: anti-CD4-Pacific Blue, anti-CD8-FITC, anti-IL-17-PE, anti CD25-PercP-Cy5.5 and anti FOX3p PE-Cy725 (all from eBioscience, San Diego, Calif.). Surface staining was performed by incubating cells with antibodies and anti-CD16/32 (blocks Fc, eBioscience) at 4° C. in FACS buffer containing PBS and 0.5% BSA, for 30 min. Cells were washed twice with FACS buffer, resuspended in FACS buffer, and analyzed by flow cytometry. Appropriate isotype controls were used in all experiments. Intracellular staining was performed using Foxp3 staining buffer kit (eBioscience, San Diego, Calif.). Cells were incubated with 1 ml Fixation/Permeabilization solution for 50 min, washed twice with Permeabilization buffer and incubated with anti-Foxp3 Ab for 50 min. Cells were then washed twice with Permeabilization buffer and resuspended with FACS buffer. Analysis was performed using a FACSCalibur instrument (Becton Dickinson, San Jose, Calif.) with FCS express V.3 software (DeNovo software, Los Angeles, Calif.).
as §2

AKT = assay: Western blot of liver extracts of ob/ob mice: AKT activation; format: in vivo; details: per os daily 4 weeks, 45 μg (group C)
Method: (§3) For analysis of whole tissue lysates, snap-frozen liver pieces were homogenized in 0.75 ml of ice-cold PBS and centrifuged at 4° C. for 5 min in 2000 rpm. Pellets were lysed with 50 mM beta glycerophosphate, 1.5 mM EGTA, PH 7.3, 1 mM EDTA, PH 7.3, 1 mM DTT, 0.1 mM Sodium vanadate, 1% NP-40, and cocktails of protease and phosphatase (Sigma, Rehovot, Israel).
(§4) Lysates were centrifuged twice at 4° C. for 10 minutes in 14000 rpm. Equivalent amounts of lysates (15 μg/lane), determined by Bradford assay (Bio-Rad, Rehovot, Israel), were separated by sodium dodecyl sulfate polyacrylamide gel electrophoresis (SDS-PAGE) and transferred to nitrocellulose membranes.
(§5) For metabolic syndrome experiments, proteins were detected with JNK-2, Phospho JNK (Thr183/Tyr185), Akt and phospho Akt (Ser 473) antibodies (Cell Signaling Technologies, MA). β-actin (abcam, UK) was used as the loading control.
(§6) Blots were developed with horseradish peroxidase-conjugated secondary antibodies (Jackson Laboratories Bar Harbor, Me.) and Western Blot-Luminol Reagent (Santa Cruz Biotechnology, CA, USA). Cell counting and western Blot quantification was performed using total Lab (Phoretix, USA) software.
(§7) Therefore, five groups of male C57BL/6 Ob/Ob mice were studied. […]

[2] = humans, preliminary data; cited from earlier work
ob/ob mice [3] = assay: Fasting glucose and glucose tolerance test in ob/ob mice; format: in vivo
Method: Mice underwent a glucose tolerance test (GTT) on day 30 after overnight fasting. Glucose was administered orally (1.25 g per kg). Serum glucose measurements were performed on tail-vein blood every 15 min for 3 h. Glucose levels were measured by a standard glucometer.
as §2

mouse splenocytes = assay: In vitro stimulation of splenocytes: supernatant IFN-γ by ELISA; format: cell-based; details: CD1d−/− splenocytes
Method: as §1

JNK2 = assay: Western blot of liver extracts of ob/ob mice: JNK2 activation; format: in vivo; details: per os daily 4 weeks, 45 μg (group C)
Method: as §3, §4, §5, §6, §7

Compound | hepatotoxicity (liver) | cell proliferation ([3H] thymidine incorporation) (B6 splenocytes) | serum AST (ob/ob mice [1]) | CD4+IL17+ / CD4+CD25+ ratio in adipose tissue (fat-associated T cells) | CD4IL17/CD4CD25FOXP3 ratio in the SVC (fat-associated T cells) | CD4IL17/CD4CD25FOXP3 ratio in the spleen (fat-associated T cells) | CD4IL17/CD4CD25 ratio in the spleen (fat-associated T cells) | ratio between CD4+IL17+ and CD4+CD25+FOXP3+ cells in adipose tissue (fat-associated T cells) | increase of AKT activation (AKT) | safety and biological activity [2] | time at which the decrease in glucose levels (GTT, relative to time 0) reached statistical significance (ob/ob mice [3]; day 30, 15 μg per os daily) | time at which the decrease in glucose levels (GTT, relative to time 0) reached statistical significance (ob/ob mice [3]; day 30, 45 μg per os daily) | liver injury (liver; oral administration) | IFN-γ secretion (mouse splenocytes) | activation of JNK2 (JNK2)
CCCCCCCCCCCCCCCCCCCCCCCCCC(=O)N[C@@H](CO[C@H]1O[C@H](CO)[C@H](O)[C@H](O)[C@H]1O)[C@H](O)[C@H](O)CCCCCCCCCCCCCC [αGalCer, α-Galctosyl-ceramide] | hepatotoxic | induced | – | – | – | – | – | – | – | – | – | – | – | – | –
β-glucosylceramide [GC, reference compound] | – | – | 330 u/L | reversal | reduction | reduction | reduction | dose dependent shift towards tolerance | 43% | safe and biologically active | 120 min | 120 min | not associated with liver injury | capable of activating | 60%
